Experimental data taken from patent US11090247B2, “Compositions for protecting the skin from heavy metals and formaldehyde” (FNG RESEARCH CO., LTD., priority 2016, dated 2021).

Columns and labels:
[1] = Removal test of heavy metals of active ingredients (pig skin, ICP-MS): Pb; conditions: contaminated pig skin
Method: (§1) (1) Preparation of Heavy Metal Contamination Sources and Pig Skin Samples
(§2) A pig was slaughtered, flayed and the bristle was shaved. The pig skin was cut to prepare 5*5 cm size of skin samples respectively.
(§3) The said skin samples were cleanly wiped with wet gauze, and then, added to 50 ml of methanol and extracted by shaking with ultrasonic for 60 min. 50 ml of methanol was further added and mixed. The pig skin samples were removed from the extracted solutions to prepare the test solutions.
(§4) The test solutions were analyzed for heavy metal components using an inductively coupled plasma mass spectrometer (ICP-MS, Xseries™ 2, Thermo Fisher Scientific, UK).

[2] = Formaldehyde removing ability test (GC); conditions: 2.0% formaldehyde solution; for Area (mAU*min) 30 min: formaldehyde GC area after 30 min; for Area (mAU*min) 30 min / Area (mAU*min) 180 min: 3 molar equivalents, room temperature; for Area (mAU*min) 180 min: formaldehyde GC area after 180 min; for Area (mAU*min) Initial: formaldehyde GC area, initial state, 3 molar equivalents of compound
[3] = Removal test of heavy metals of active ingredients (pig skin, ICP-MS): Cd; conditions: contaminated pig skin
Method: as §1, §2, §3, §4

human skin = assay: Skin irritation test of active ingredient (patch method, CTFA guidelines); type: in vivo; parameters: key to Degree of irritation: 0–0.1 none, 0.11–0.3 weak, 0.31–0.5 moderate, ≥0.51 strong irritation; conditions: 20 people, patch 24 hours; for Test result(number of subject) (+): (+): Apparent reddening than periphery; for Test result(number of subject) (++): (++): More reddened and swollen than periphery; for Test result(number of subject) (±): (±): slightly reddish than the periphery; for Test result(number of subject) (−): (−): No erythema or particularly no symptoms
Method: A total of 20 people (10 men and 10 women in their 20 s and 30 s) were tested for skin irritation using the patch method according to the guidelines of CTFA (The Cosmetic, Toiletry & Fragrance Association, Inc. Washington, D.C.).
A filter paper disk was placed in an 8 mm diameter, 10 panels of pin chamber.
After 24 hours, the pin chamber was removed, and skin conditions were visually observed.
[Criteria for Skin Irritation]
(−): No erythema or particularly no symptoms; (±): slightly reddish than the periphery; (+): Apparent reddening than periphery; (++): More reddened and swollen than periphery.
[Grade for Skin Irritation]
Degree of irritation 0-0.1: Grade I (unstimulated);
Degree of irritation 0.11-0.3: Grade II (weakly stimulated);
Degree of irritation 0.31-0.5: Grade III (moderately stimulated);
Degree of irritation 0.51 or more: Grade IV (strongly stimulated)

[4] = Removal test of heavy metals of active ingredients (pig skin, ICP-MS): Cu; conditions: contaminated pig skin
Method: as §1, §2, §3, §4

O=C(O)c1ccc(N2CCCN(c3ccc(C(=O)O)cc3)CCN(c3ccc(C(=O)O)cc3)CCCN(c3ccc(C(=O)O)cc3)CC2)cc1 [Embodiment 10, 4,4′,4″,4′″-(1,4,8,11-tetraazacyclotetradecane-1,4,8,11-tetrayl)tetrabenzoic acid]
Removal of Heavy metals Pb (%) ([1]; 0.1 wt % aqueous solution): 88.3% | Removal of Heavy metals Pb (%) ([1]; 0.5 wt % aqueous solution): 90.5% | Removal of Heavy metals Pb (%) ([1]; 1.0 wt % aqueous solution): 90.9% | Area (mAU*min) 30 min [2]: 0.171 mAU*min | Area (mAU*min) 180 min [2]: 0 mAU*min | Area (mAU*min) Initial [2]: 0.305 mAU*min | Removal of Heavy metals Cd (%) ([3]; 0.1 wt % aqueous solution): 85.7% | Removal of Heavy metals Cd (%) ([3]; 0.5 wt % aqueous solution): 90.4% | Removal of Heavy metals Cd (%) ([3]; 1.0 wt % aqueous solution): 91.1% | Degree of irritation (human skin; 0.1 wt %): 0 | Grade (human skin; 0.1 wt %): I (Degree of irritation 0-0.1: Grade I (unstimulated)) | Test result(number of subject) (+) (human skin; 0.1 wt %): 0 | Test result(number of subject) (++) (human skin; 0.1 wt %): 0 | Test result(number of subject) (±) (human skin; 0.1 wt %): 0 | Test result(number of subject) (−) (human skin; 0.1 wt %): 20 | Degree of irritation (human skin; 0.5 wt %): 0 | Grade (human skin; 0.5 wt %): I (Degree of irritation 0-0.1: Grade I (unstimulated)) | Test result(number of subject) (+) (human skin; 0.5 wt %): 0 | Test result(number of subject) (++) (human skin; 0.5 wt %): 0 | Test result(number of subject) (±) (human skin; 0.5 wt %): 0 | Test result(number of subject) (−) (human skin; 0.5 wt %): 20 | Degree of irritation (human skin; 1.0 wt %): 0.05 | Grade (human skin; 1.0 wt %): I (Degree of irritation 0-0.1: Grade I (unstimulated)) | Test result(number of subject) (+) (human skin; 1.0 wt %): 0 | Test result(number of subject) (++) (human skin; 1.0 wt %): 0 | Test result(number of subject) (±) (human skin; 1.0 wt %): 1 | Test result(number of subject) (−) (human skin; 1.0 wt %): 19 | Removal of Heavy metals Cu (%) ([4]; 0.1 wt % aqueous solution): 94.1% | Removal of Heavy metals Cu (%) ([4]; 0.5 wt % aqueous solution): 96.0% | Removal of Heavy metals Cu (%) ([4]; 1.0 wt % aqueous solution): 96.5%

O=C(O)c1cncc(N2CCCN(c3cncc(C(=O)O)c3)CCN(c3cncc(C(=O)O)c3)CCCN(c3cncc(C(=O)O)c3)CC2)c1 [Embodiment 11, 5,5′,5″,5′″-(1,4,8,11-tetraazacyclotetradecane-1,4,8,11-tetrayl)tetranicotinic acid]
Removal of Heavy metals Pb (%) ([1]; 0.1 wt % aqueous solution): 87.9% | Removal of Heavy metals Pb (%) ([1]; 0.5 wt % aqueous solution): 89.2% | Removal of Heavy metals Pb (%) ([1]; 1.0 wt % aqueous solution): 91.2% | Area (mAU*min) 30 min [2]: 0.174 mAU*min | Area (mAU*min) 180 min [2]: 0 mAU*min | Area (mAU*min) Initial [2]: 0.305 mAU*min | Removal of Heavy metals Cd (%) ([3]; 0.1 wt % aqueous solution): 86.7% | Removal of Heavy metals Cd (%) ([3]; 0.5 wt % aqueous solution): 88.9% | Removal of Heavy metals Cd (%) ([3]; 1.0 wt % aqueous solution): 91.0% | Degree of irritation (human skin; 0.1 wt %): 0 | Grade (human skin; 0.1 wt %): I (Degree of irritation 0-0.1: Grade I (unstimulated)) | Test result(number of subject) (+) (human skin; 0.1 wt %): 0 | Test result(number of subject) (++) (human skin; 0.1 wt %): 0 | Test result(number of subject) (±) (human skin; 0.1 wt %): 0 | Test result(number of subject) (−) (human skin; 0.1 wt %): 20 | Degree of irritation (human skin; 0.5 wt %): 0 | Grade (human skin; 0.5 wt %): I (Degree of irritation 0-0.1: Grade I (unstimulated)) | Test result(number of subject) (+) (human skin; 0.5 wt %): 0 | Test result(number of subject) (++) (human skin; 0.5 wt %): 0 | Test result(number of subject) (±) (human skin; 0.5 wt %): 0 | Test result(number of subject) (−) (human skin; 0.5 wt %): 20 | Degree of irritation (human skin; 1.0 wt %): 0.10 | Grade (human skin; 1.0 wt %): I (Degree of irritation 0-0.1: Grade I (unstimulated)) | Test result(number of subject) (+) (human skin; 1.0 wt %): 0 | Test result(number of subject) (++) (human skin; 1.0 wt %): 0 | Test result(number of subject) (±) (human skin; 1.0 wt %): 2 | Test result(number of subject) (−) (human skin; 1.0 wt %): 18 | Removal of Heavy metals Cu (%) ([4]; 0.1 wt % aqueous solution): 93.8% | Removal of Heavy metals Cu (%) ([4]; 0.5 wt % aqueous solution): 96.0% | Removal of Heavy metals Cu (%) ([4]; 1.0 wt % aqueous solution): 96.8%

O=C(O)c1ccc(N2CCCN(c3ccc(C(=O)O)o3)CCN(c3ccc(C(=O)O)o3)CCCN(c3ccc(C(=O)O)o3)CC2)o1 [Embodiment 12, 5,5′,5″,5′″-(1,4,8,11-tetraazacyclotetradecane-1,4,8,11-tetrayl)tetrakis(furan-2-carboxylic acid)]
Removal of Heavy metals Pb (%) ([1]; 0.1 wt % aqueous solution): 89.1% | Removal of Heavy metals Pb (%) ([1]; 0.5 wt % aqueous solution): 90.9% | Removal of Heavy metals Pb (%) ([1]; 1.0 wt % aqueous solution): 91.3% | Area (mAU*min) 30 min [2]: 0.170 mAU*min | Area (mAU*min) 180 min [2]: 0 mAU*min | Area (mAU*min) Initial [2]: 0.305 mAU*min | Removal of Heavy metals Cd (%) ([3]; 0.1 wt % aqueous solution): 90.1% | Removal of Heavy metals Cd (%) ([3]; 0.5 wt % aqueous solution): 90.7% | Removal of Heavy metals Cd (%) ([3]; 1.0 wt % aqueous solution): 90.9% | Degree of irritation (human skin; 0.1 wt %): 0 | Grade (human skin; 0.1 wt %): I (Degree of irritation 0-0.1: Grade I (unstimulated)) | Test result(number of subject) (+) (human skin; 0.1 wt %): 0 | Test result(number of subject) (++) (human skin; 0.1 wt %): 0 | Test result(number of subject) (±) (human skin; 0.1 wt %): 0 | Test result(number of subject) (−) (human skin; 0.1 wt %): 20 | Degree of irritation (human skin; 0.5 wt %): 0 | Grade (human skin; 0.5 wt %): I (Degree of irritation 0-0.1: Grade I (unstimulated)) | Test result(number of subject) (+) (human skin; 0.5 wt %): 0 | Test result(number of subject) (++) (human skin; 0.5 wt %): 0 | Test result(number of subject) (±) (human skin; 0.5 wt %): 0 | Test result(number of subject) (−) (human skin; 0.5 wt %): 20 | Degree of irritation (human skin; 1.0 wt %): 0.05 | Grade (human skin; 1.0 wt %): I (Degree of irritation 0-0.1: Grade I (unstimulated)) | Test result(number of subject) (+) (human skin; 1.0 wt %): 0 | Test result(number of subject) (++) (human skin; 1.0 wt %): 0 | Test result(number of subject) (±) (human skin; 1.0 wt %): 1 | Test result(number of subject) (−) (human skin; 1.0 wt %): 19 | Removal of Heavy metals Cu (%) ([4]; 0.1 wt % aqueous solution): 94.5% | Removal of Heavy metals Cu (%) ([4]; 0.5 wt % aqueous solution): 95.8% | Removal of Heavy metals Cu (%) ([4]; 1.0 wt % aqueous solution): 96.3%

NCCNCCNCCN [Trientine, Triethylenetetramine, reference compound]
Removal of Heavy metals Pb (%) ([1]; 0.1 wt % aqueous solution): 89.7% | Removal of Heavy metals Pb (%) ([1]; 0.5 wt % aqueous solution): 92.1% | Removal of Heavy metals Pb (%) ([1]; 1.0 wt % aqueous solution): 92.3% | Area (mAU*min) 30 min [2]: 0.168 mAU*min | Area (mAU*min) 180 min [2]: 0 mAU*min | Area (mAU*min) Initial [2]: 0.305 mAU*min | Removal of Heavy metals Cd (%) ([3]; 0.1 wt % aqueous solution): 87.3% | Removal of Heavy metals Cd (%) ([3]; 0.5 wt % aqueous solution): 92.4% | Removal of Heavy metals Cd (%) ([3]; 1.0 wt % aqueous solution): 92.3% | Degree of irritation (human skin; 0.1 wt %): 0 | Grade (human skin; 0.1 wt %): I (Degree of irritation 0-0.1: Grade I (unstimulated)) | Test result(number of subject) (+) (human skin; 0.1 wt %): 0 | Test result(number of subject) (++) (human skin; 0.1 wt %): 0 | Test result(number of subject) (±) (human skin; 0.1 wt %): 0 | Test result(number of subject) (−) (human skin; 0.1 wt %): 20 | Degree of irritation (human skin; 0.5 wt %): 0.05 | Grade (human skin; 0.5 wt %): I (Degree of irritation 0-0.1: Grade I (unstimulated)) | Test result(number of subject) (+) (human skin; 0.5 wt %): 0 | Test result(number of subject) (++) (human skin; 0.5 wt %): 0 | Test result(number of subject) (±) (human skin; 0.5 wt %): 1 | Test result(number of subject) (−) (human skin; 0.5 wt %): 19 | Degree of irritation (human skin; 1.0 wt %): 0.15 | Grade (human skin; 1.0 wt %): II (Degree of irritation 0.11-0.3: Grade II (weakly stimulated)) | Test result(number of subject) (+) (human skin; 1.0 wt %): 0 | Test result(number of subject) (++) (human skin; 1.0 wt %): 0 | Test result(number of subject) (±) (human skin; 1.0 wt %): 3 | Test result(number of subject) (−) (human skin; 1.0 wt %): 17 | Removal of Heavy metals Cu (%) ([4]; 0.1 wt % aqueous solution): 92.6% | Removal of Heavy metals Cu (%) ([4]; 0.5 wt % aqueous solution): 95.4% | Removal of Heavy metals Cu (%) ([4]; 1.0 wt % aqueous solution): 96.0%
